The values that follow come from patent publication US20120016009A1, “Optimized Methods For Delivery Of DSRNA Targeting The PCSK9 Gene” (priority 2008, published 2012).

In the oligonucleotide strings, read from the 5' end, every base follows the letter of its sugar. An asterisk marks phosphorothioate; unmarked linkages are phosphodiester. Other units and linkages are bracketed, terminal groups are in braces. A string of capitals states the bases alone. d = 2'-deoxy (DNA); m = 2'-O-methyl; r = 2'-OH (RNA)

For the series, the system named is PCSK9 mRNA. As to the kind of experiment: PCSK9 siRNA screening in HepG2 cells (lipofectamine 2000 transfection, PCSK9 mRNA by Quantigene, normalized to GAP-DH). The class given is cell-based, human. The following applies: for Mean percent remaining mRNA transcript at siRNA concentration/in cell type 30 nM/HepG2: 30 nM siRNA; for Mean percent remaining mRNA transcript at siRNA concentration/in cell type 100 nM/HepG2: 100 nM siRNA; for Mean percent remaining mRNA transcript at siRNA concentration/in cell type 3 nM/HepG2: 3 nM siRNA. Here is the method:
HuH-7 cells were obtained from JCRB Cell Bank (Japanese Collection of Research Bioresources) (Shinjuku, Japan, cat. No.: JCRB0403) Cells were cultured in Dulbecco's MEM (Biochrom AG, Berlin, Germany, cat. No. F0435) supplemented to contain 10% fetal calf serum (FCS) (Biochrom AG, Berlin, Germany, cat. No. S0115), Penicillin 100 U/ml, Streptomycin 100 μg/ml (Biochrom AG, Berlin, Germany, cat. No. A2213) and 2 mM L-Glutamin (Biochrom AG, Berlin, Germany, cat. No K0282) at 37° C. in an atmosphere with 5% CO2 in a humidified incubator (Heraeus HERAcell, Kendro Laboratory Products, Langenselbold, Germany) HepG2 and HeLa cells were obtained from American Type Culture Collection (Rockville, Md., cat. No. HB-8065) and cultured in MEM (Gibco Invitrogen, Karlsruhe, Germany, cat. No. 21090-022) supplemented to contain 10% fetal calf serum (FCS) (Biochrom AG, Berlin, Germany, cat. No. S0115), Penicillin 100 U/ml, Streptomycin 100 μg/ml (Biochrom AG, Berlin, Germany, cat. No. A2213), 1× Non Essential Amino Acids (Biochrom AG, Berlin, Germany, cat. No. K-0293), and 1 mM Sodium Pyruvate (Biochrom AG, Berlin, Germany, cat. No. L-0473) at 37° C. in an atmosphere with 5% CO2 in a humidified incubator (Heraeus HERAcell, Kendro Laboratory Products, Langenselbold, Germany).
For transfection with siRNA, HuH7, HepG2, or HeLa cells were seeded at a density of 2.0×10^4 cells/well in 96-well plates and transfected directly. Transfection of siRNA (30 nM for single dose screen) was carried out with lipofectamine 2000 (Invitrogen GmbH, Karlsruhe, Germany, cat. No. 11668-019) as described by the manufacturer.
24 hours after transfection HuH7 and HepG2 cells were lysed and PCSK9 mRNA levels were quantified with the Quantigene Explore Kit (Genosprectra, Dumbarton Circle Fremont, USA, cat. No. QG-000-02) according to the protocol. PCSK9 mRNA levels were normalized to GAP-DH mRNA. For each siRNA eight individual datapoints were collected. siRNA duplexes unrelated to PCSK9 gene were used as control. The activity of a given PCSK9 specific siRNA duplex was expressed as percent PCSK9 mRNA concentration in treated cells relative to PCSK9 mRNA concentration in cells treated with the control siRNA duplex.
Tables 1b and 2b (and FIG. 6A) summarize the results and provide examples of in vitro screens in different cell lines at different doses. Silencing of PCSK9 transcript was expressed as percentage of remaining transcript at a given dose.
Very active sequences are those that have less than 60% of transcript remaining after treatment with a dose less than or equal to 100 nM. Active sequences are those that have less than 90% transcript remaining after treatment with a high dose (100 nM).

As to “AD-9686: PCSK9 siRNA (sense rGrArGmUmUmUrAmUmUmCrGrGrArArArArGmCmCdT*dT; antisense rGrGrCrUrUrUrUrCrCrGrArAmUrArArArCrUrCdT*dT)”, the “Mean percent remaining mRNA transcript at siRNA concentration/in cell type 30 nM/HepG2” value is given as 111%.
Take “AD-9694: PCSK9 siRNA (sense rGmUmUrGrArGrGmCrArGrArGrAmCmUrGrAmUmCdT*dT; antisense rGrArUmCrArGrUrCrUrCrUrGrCrCrUmCrArArCdT*dT)”: the “Mean percent remaining mRNA transcript at siRNA concentration/in cell type 30 nM/HepG2” value worked out at 52%.
Same read-out and setting: in the case of “AD-9717: PCSK9 siRNA (sense rAmCmUrGmUmCmCmCmUmCmCmUmUrGrArGmCrAmCdT*dT; antisense rGrUrGrCrUmCrArArGrGrArGrGrGrAmCrArGrUdT*dT)” it was 105%; in that of “AD-9615: PCSK9 siRNA (sense rUrUrCrCrGrGrGrArCrGrArUrGrCrCrUrGrCrCdT*dT; antisense rGrGrCrArGrGrCrArUrCrGrUrCrCrCrGrGrArAdT*dT)”, 116%.
Regarding “AD-9582: PCSK9 siRNA (sense rCrCrArGrCrArUrCrCrArCrGrCrUrUrCrCrUrGdT*dT; antisense rCrArGrGrArArGrCrGrUrGrGrArUrGrCrUrGrGdT*dT)”, the “Mean percent remaining mRNA transcript at siRNA concentration/in cell type 30 nM/HepG2” value stood at 37%.
Turning to “AD-9685: PCSK9 siRNA (sense rGmUrGrAmCmCrAmCmCrGrGrGrArArAmUmCrGrAdT*dT; antisense rUrCrGrArUrUrUrCrCrCrGrGrUrGrGrUmCrArCdT*dT)”, the “Mean percent remaining mRNA transcript at siRNA concentration/in cell type 30 nM/HepG2” value is 77%.
Consider “AD-9527: PCSK9 siRNA (sense rGrCrCrArArCrCrCrGrCrUrCrCrArCrUrArCrCdT*dT; antisense rGrGrUrArGrUrGrGrArGrCrGrGrGrUrUrGrGrCdT*dT)”, for which the “Mean percent remaining mRNA transcript at siRNA concentration/in cell type 30 nM/HepG2” value was found to be 45%.
Same read-out and setting: in the case of “AD-9695: PCSK9 siRNA (sense rArGmCmUmCmCmUrGmCrAmCrArGmUmCmCmUmCmCdT*dT; antisense rGrGrArGrGrArCrUrGrUrGmCrArGrGrArGrCrUdT*dT)” it was 102%.
For the substance “AD-9719: PCSK9 siRNA (sense mCrArGrGrGmUmCrAmUrGrGmUmCrAmCmCrGrAmCdT*dT; antisense rGrUrCrGrGrUrGrArCmCrArUrGrArCrCrCrUrGdT*dT)”, the “Mean percent remaining mRNA transcript at siRNA concentration/in cell type 30 nM/HepG2” value was 115%.
“AD-9620: PCSK9 siRNA (sense rCrArGrGrArGrCrCrGrGrGrArCrGrUrCrArGrCdT*dT; antisense rGrCrUrGrArCrGrUrCrCrCrGrGrCrUrCrCrUrGdT*dT)”: the “Mean percent remaining mRNA transcript at siRNA concentration/in cell type 30 nM/HepG2” value was 77% and the “Mean percent remaining mRNA transcript at siRNA concentration/in cell type 100 nM/HepG2” value turned out to be 44%.
In the case of “AD-9554: PCSK9 siRNA (sense rUrUrCrUrArGrArCrCrUrGrUrUrUrUrGrCrUrUdT*dT; antisense rArArGrCrArArArArCrArGrGrUrCrUrArGrArAdT*dT)”, the “Mean percent remaining mRNA transcript at siRNA concentration/in cell type 3 nM/HepG2” value is on record as 24% and the “Mean percent remaining mRNA transcript at siRNA concentration/in cell type 30 nM/HepG2” value came to 23%.
As for “AD-9540: PCSK9 siRNA (sense rArGrArGrUrGrArCrCrArCrCrGrGrGrArArArUdT*dT; antisense rArUrUrUrCrCrCrGrGrUrGrGrUrCrArCrUrCrUdT*dT)”, the “Mean percent remaining mRNA transcript at siRNA concentration/in cell type 30 nM/HepG2” value stood at 45%.
Take “AD-9590: PCSK9 siRNA (sense rArCrCrArArCrUrUrUrGrGrCrCrGrCrUrGrUrGdT*dT; antisense rCrArCrArGrCrGrGrCrCrArArArGrUrUrGrGrUdT*dT)”: the “Mean percent remaining mRNA transcript at siRNA concentration/in cell type 30 nM/HepG2” value turned out to be 122%.
For the substance “AD-9662: PCSK9 siRNA (sense mUmUrAmUmUmCrGrGrArArArArGmCmCrArGmCmUdT*dT; antisense rArGrCrUrGrGrCrUrUrUrUrCrCrGrArAmUrArAdT*dT)”, the “Mean percent remaining mRNA transcript at siRNA concentration/in cell type 30 nM/HepG2” value is given as 81%.
Turning to “AD-9702: PCSK9 siRNA (sense rGmCrArGrArGrAmCmUrGrAmUmCmCrAmCmUmUmCdT*dT; antisense rGrArArGrUrGrGrArUmCrArGrUrCrUrCrUrGrCdT*dT)”, the “Mean percent remaining mRNA transcript at siRNA concentration/in cell type 30 nM/HepG2” value was determined as 79%.
Still for that read-out and setting: in the case of “AD-9556: PCSK9 siRNA (sense rUrGrGrUrGrGrArGrGrUrGrUrArUrCrUrCrCrUdT*dT; antisense rArGrGrArGrArUrArCrArCrCrUrCrCrArCrCrAdT*dT)” it was 46%.
Turning to “AD-9545: PCSK9 siRNA (sense rArGrUrCrArArGrGrArGrCrArUrGrGrArArUrCdT*dT; antisense rGrArUrUrCrCrArUrGrCrUrCrCrUrUrGrArCrUdT*dT)”, the “Mean percent remaining mRNA transcript at siRNA concentration/in cell type 3 nM/HepG2” value worked out at 43% and the “Mean percent remaining mRNA transcript at siRNA concentration/in cell type 30 nM/HepG2” value is recorded as 31%.
For “AD-9714: PCSK9 siRNA (sense rGrGmUmCrAmCmCrGmCmUrGmCmCrGrGmCrArAmCdT*dT; antisense rGrUrUrGrCrCrGrGmCrArGrCrGrGrUrGrArCrCdT*dT)”, the “Mean percent remaining mRNA transcript at siRNA concentration/in cell type 30 nM/HepG2” value is given as 106%.
In the case of “AD-9580: PCSK9 siRNA (sense rCrCrUrGrCrGrCrGrUrGrCrUrCrArArCrUrGrCdT*dT; antisense rGrCrArGrUrUrGrArGrCrArCrGrCrGrCrArGrGdT*dT)”, the “Mean percent remaining mRNA transcript at siRNA concentration/in cell type 30 nM/HepG2” value came out at 112%.
Still for that read-out and setting: in the case of “AD-9525: PCSK9 siRNA (sense rGrGrArGrUrUrUrArUrUrCrGrGrArArArArGrCdT*dT; antisense rGrCrUrUrUrUrCrCrGrArArUrArArArCrUrCrCdT*dT)” it was 53%.
“AD-9639: PCSK9 siRNA (sense rGrUrGrCrUrGrArGrGrCrCrArCrGrArGrGrUrCdT*dT; antisense rGrArCrCrUrCrGrUrGrGrCrCrUrCrArGrCrArCdT*dT)”: the “Mean percent remaining mRNA transcript at siRNA concentration/in cell type 3 nM/HepG2” value was found to be 35% and the “Mean percent remaining mRNA transcript at siRNA concentration/in cell type 30 nM/HepG2” value was 30%.
Consider “AD-9667: PCSK9 siRNA (sense rGrGmUrGrArGrGrGmUrGmUmCmUrAmCrGmCmCrAdT*dT; antisense rUrGrGrCrGmUrArGrAmCrArCrCrCrUmCrArCrCdT*dT)”, for which the “Mean percent remaining mRNA transcript at siRNA concentration/in cell type 30 nM/HepG2” value turned out to be 73%.
The same measure, in the same setting: in the case of “AD-9735: PCSK9 siRNA (sense mCrAmCrGrGmUrAmCmCrGrGrGmCrGrGrAmUrGrAdT*dT; antisense rUmCrArUrCrCrGrCrCrCrGrGmUrArCrCrGrUrGdT*dT)” it was 115%; in that of “AD-9753: PCSK9 siRNA (sense rArGrArGrAmCmUrGrAmUmCmCrAmCmUmUmCmUmCdT*dT; antisense rGrArGrArArGrUrGrGrArUmCrArGrUrCrUrCrUdT*dT)”, 127%; in that of “AD-9564: PCSK9 siRNA (sense rUrCrArUrUrGrGrUrGrCrCrUrCrCrArGrCrGrAdT*dT; antisense rUrCrGrCrUrGrGrArGrGrCrArCrCrArArUrGrAdT*dT)”, 120%.
As for “AD-9732: PCSK9 siRNA (sense mUmCrGmUrGmCmUrGrGmUmCrAmCmCrGmCmUrGmCdT*dT; antisense rGmCrArGrCrGrGrUrGrArCmCrArGmCrArCrGrAdT*dT)”, the “Mean percent remaining mRNA transcript at siRNA concentration/in cell type 30 nM/HepG2” value is 105%.
The same measure, in the same setting: the same measure for “AD-9544: PCSK9 siRNA (sense rUrGrArGrGrArCrCrArGrCrGrGrGrUrArCrUrGdT*dT; antisense rCrArGrUrArCrCrCrGrCrUrGrGrUrCrCrUrCrAdT*dT)”: 68%.
Consider “AD-9604: PCSK9 siRNA (sense rCrUrCrArGrCrCrArArCrCrCrGrCrUrCrCrArCdT*dT; antisense rGrUrGrGrArGrCrGrGrGrUrUrGrGrCrUrGrArGdT*dT)”, for which the “Mean percent remaining mRNA transcript at siRNA concentration/in cell type 30 nM/HepG2” value was determined as 49% and the “Mean percent remaining mRNA transcript at siRNA concentration/in cell type 100 nM/HepG2” value is listed as 35%.
For “AD-9742: PCSK9 siRNA (sense rArGmCrAmCmCmUrGmCmUmUmUrGmUrGmUmCrAmCdT*dT; antisense rGrUrGrAmCrAmCrArArArGmCrArGrGrUrGrCrUdT*dT)”, the “Mean percent remaining mRNA transcript at siRNA concentration/in cell type 30 nM/HepG2” value is given as 127%.
